Data as given in patent publication EP4631503A1, “AVL-292 OR MK-5108 FOR USE IN THE TREATMENT OF PDAC” (priority 2024, dated 2025).
Where two headings read alike, the source gives them in different places.

Columns and labels:
HPAF II = assay: MTT cell viability assay; type: cell-based; details: Homo sapiens, 48 h
Method: Pane1 and HPAF II cells were cultured with DMEM (D0822, Sigma-Aldrich) supplemented with 10% fetal bovine serum (FBS, F7524, Sigma-Aldrich), 1% P/S (P4333, Sigma-Aldrich). […] Drugs were treated to cells for two days at 10µM. Cell viability was measured by MTT assay (M6494, ThermoFisher) by following the manufacturer's instructions. O.D values were detected with a microplate reader (Hidex Sense Beta Plus).

[1] = Western blot, apoptotic marker; type: cell-based; details: apoptotic gene
Method: (§1) Pane1 and HPAF II cells were seeded into a 6-well plate at 200,000 cells per well concentration. After siRNA transfection and drug treatment, whole cell lysate was prepared with CelLytic M (C2978, Sigma-Aldrich) buffer and samples were prepared with 2x Laemmli Sample Buffer (1610737, Biorad) at 20µg protein lysate. SDS PAGE was performed Mini-PROTEAN® TGX™ Precast Gels (Bio-Rad) and transferred using Trans-Blot® Turbo™ Transfer System (Bio-Rad). CDCA5 (ab192237, abcam), KIF18A (ab72417, abcam), KIF23 (HPA068831, Sigma Aldrich), TPX2 (ab252944, abeam), Aurora A (ab108353, abeam), Aurora B (ab287960, abcam), PARP (9542S, Cell signaling), […] (ab2324, abcam), β-actin (ab8227, abeam), GAPDH (ab8245, abeam), and α-tubulin (ab7291, abcam) were blotted as a primary antibody for overnight. Secondary antibodies, Goat Anti-Rabbit HRP (ab205718) and goat anti-mouse IgG-HRP (sc2005, Santa Cruz Biotechnology, Inc.) were blotted for one hour. The protein band was detected with ImageQuantTMLAS 500 (29-0050-63, GE).

cleaved PRAP = assay: Western blot, apoptotic marker; type: cell-based; details: apoptotic gene
Method: as §1

MTT cell viability assay = type: cell-based; details: Homo sapiens, PANC-1, 48 h, Pane1 cells, two days
Method: Pane1 and HPAF II cells were cultured with DMEM (D0822, Sigma-Aldrich) supplemented with 10% fetal bovine serum (FBS, F7524, Sigma-Aldrich), 1% P/S (P4333, Sigma-Aldrich). For siRNA treatment, 200,000 cells for a 6well plate and 20,000 cells per well for a 96well plate were seeded. siRNAs were purchased in Origene, CDCA5 (SR314367, Origene), KIF18A (SR313129, Origene), KIF23 (SR306300, Origene), TPX2 (SR307905, Origene), and cells were transfected by Lipofectamine® RNAiMAX (13778-075, Invitrogen) for two days. Small molecules which repositioned were purchased by AVL-292 (HY-18012, MCE), BCI-50 (HY-17553, MCE), MK-5108 (HY-13252, MCE), AZD1208 (HY-15604, MCE), SKA-31 (HY111655, MCE), Y-26763 (HY-101069, MCE), Estropipate (HY-B1361, MCE), Tiquizium (sc-474386, Santa Cruz), Acyclovir (HY-17422, MCE), and Cyproterone acetate (HY-13604, MCE) and dissolved into DMSO. Drugs were treated to cells for two days at 10µM. Cell viability was measured by MTT assay (M6494, ThermoFisher) by following the manufacturer's instructions. O.D values were detected with a microplate reader (Hidex Sense Beta Plus).

AURKA = assay: Western blot, protein expression level; type: cell-based; details: cells, 10 µM, in words
Method: as §1

KIF18A = assay: Western blot, protein expression level; type: cell-based; details: Pane1 cells, 10 µM, in words
Method: as §1

TPX2 = assay: Western blot, protein expression level; type: cell-based; details: cells, 10 µM, in words
Method: as §1

AURKB = assay: Western blot, protein expression level; type: cell-based; details: cells, 10 µM, in words
Method: as §1

KIF23 = assay: Western blot, protein expression level; type: cell-based; details: cells, 10 µM, in words
Method: as §1

CDCA5 = assay: Western blot, protein expression level; type: cell-based; details: cells, 10 µM, in words
Method: as §1

[2] = taken orally, phase I trial; cited from earlier work
PDAC = details: phase II clinical trials; cited from earlier work

C=CC(=O)Nc1cccc(Nc2nc(Nc3ccc(OCCOC)cc3)ncc2F)c1 [AVL-292]
viability at 10 µM (HPAF II; HPAF-II): 71.6%
protein expression level of Cas9 [1]: increased
protein expression level of cleaved PRAP (cleaved PRAP): increased
viability at 10 µM (MTT cell viability assay): 60.7%

O=C(O)[C@]1(Cc2cccc(Nc3nccs3)n2)CC[C@@H](Oc2cccc(Cl)c2F)CC1 [MK-5108]
viability at 10 µM (HPAF II; HPAF II cells, 10µM, two days, read-out: viability): 69.5%
protein expression level of Cas9 [1]: increased
protein expression level of cleaved PRAP (cleaved PRAP): increased
AURKA expression change (AURKA): over-expressed
KIF18A expression change (KIF18A): over-expressed
TPX2 expression change (TPX2): over-expressed
AURKB expression change (AURKB): no obvious effect
KIF23 expression change (KIF23): over-expressed
CDCA5 expression change (CDCA5): over-expressed
tolerability in patients [2]: well tolerated
viability at 10 µM (MTT cell viability assay): 45.8%

CN(C)C(=N)N=C(N)N [Metformin]
extended survival, average (PDAC): 0.8 months
